The results in this text go back to ChEMBL document CHEMBL6177973, “A Novel Compound 3a-M1, from Metabolites of Sinomenine Derivative 3a, Exerts Potent Anti-Aplastic Anemia Activity via IP3R/ORAI-Mediated CTL Ferroptosis” (J Med Chem, 2025).

pIC50: −log10 of the molar value.

What all share (type): functional, cell-based
One test relates to HL-60. Briefly: Cytotoxicity against human HL-60 cells assessed as inhibition of cell viability incubated for 72 hrs by CCK8 assay. Particulars: HL-60, 72 h. In general terms: Tetrazolium assays rely on reduction of a dye to a coloured formazan, in cell work by metabolically active cells.
The test system of another test is THP-1. Briefly: Cytotoxicity against human THP-1 cells assessed as inhibition of cell viability incubated for 72 hrs by CCK8 assay. The conditions noted are these: THP-1, 72 h.
Another test relates to NRK-52E. Briefly: Cytotoxicity against rat NRK-52E cells assessed as inhibition of cell viability incubated for 72 hrs by CCK8 assay.
For another test, the system named is HepG2. Briefly: Cytotoxicity against human HepG2 cells assessed as inhibition of cell viability incubated for 72 hrs by CCK8 assay. Particulars: HepG2, 72 h.
For a further test, the system named is CTLL-2. Briefly: Cytotoxicity against mouse CTLL-2 cells assessed as inhibition of cell viability incubated for 72 hrs by CCK8 assay. Particulars: CTLL-2, 72 h.
Another test relates to IEC-6. Briefly: Cytotoxicity against rat IEC-6 cells assessed as inhibition of cell viability incubated for 72 hrs by CCK8 assay. The conditions noted are these: IEC-6, 72 h.
The test system of another test is RAW264.7. Briefly: Cytotoxicity against mouse RAW264.7 cells assessed as inhibition of cell viability incubated for 72 hrs by CCK8 assay. Particulars: RAW264.7, 72 h.

In general, pIC50 refers to the negative decadic logarithm of the IC50, by convention in mol/L. In the case of `C/C=C/C[C@@H](C)[C@@H](O)[C@H]1C(=O)N[C@@H](CC)C(=O)N(C)CC(=O)N(C)[C@@H](CC(C)C)C(=O)N[C@@H](C(C)C)C(=O)N(C)[C@@H](CC(C)C)C(=O)N[C@@H](C)C(=O)N[C@H](C)C(=O)N(C)[C@@H](CC(C)C)C(=O)N(C)[C@@H](CC(C)C)C(=O)N(C)[C@@H](C(C)C)C(=O)N1C` [CYCLOSPORINE], the pIC50 in the test with HL-60 is 5.09; with THP-1, 5.36; in the test on NRK-52E, 4.45; in the test with HepG2 it was 4.93; in the test with CTLL-2, 5.57; with IEC-6, 5.04. Also, the pIC50 with RAW264.7 is 4.85.
